Data from BindingDB's records for patent US8497376 (Janssen Pharmaceutica, 2013).

Target: Macrophage colony-stimulating factor 1 receptor (Homo sapiens, UniProt P07333)
Experiment: Fluorescence Polarization Competition Assay
Conditions: pH 7.5
Source text: An autophosphorylation, fluroescence polarization competition immunoassay was used to determine the potency for c-fms inhibition.

Chain of Macrophage colony-stimulating factor 1 receptor (P07333 whole entry): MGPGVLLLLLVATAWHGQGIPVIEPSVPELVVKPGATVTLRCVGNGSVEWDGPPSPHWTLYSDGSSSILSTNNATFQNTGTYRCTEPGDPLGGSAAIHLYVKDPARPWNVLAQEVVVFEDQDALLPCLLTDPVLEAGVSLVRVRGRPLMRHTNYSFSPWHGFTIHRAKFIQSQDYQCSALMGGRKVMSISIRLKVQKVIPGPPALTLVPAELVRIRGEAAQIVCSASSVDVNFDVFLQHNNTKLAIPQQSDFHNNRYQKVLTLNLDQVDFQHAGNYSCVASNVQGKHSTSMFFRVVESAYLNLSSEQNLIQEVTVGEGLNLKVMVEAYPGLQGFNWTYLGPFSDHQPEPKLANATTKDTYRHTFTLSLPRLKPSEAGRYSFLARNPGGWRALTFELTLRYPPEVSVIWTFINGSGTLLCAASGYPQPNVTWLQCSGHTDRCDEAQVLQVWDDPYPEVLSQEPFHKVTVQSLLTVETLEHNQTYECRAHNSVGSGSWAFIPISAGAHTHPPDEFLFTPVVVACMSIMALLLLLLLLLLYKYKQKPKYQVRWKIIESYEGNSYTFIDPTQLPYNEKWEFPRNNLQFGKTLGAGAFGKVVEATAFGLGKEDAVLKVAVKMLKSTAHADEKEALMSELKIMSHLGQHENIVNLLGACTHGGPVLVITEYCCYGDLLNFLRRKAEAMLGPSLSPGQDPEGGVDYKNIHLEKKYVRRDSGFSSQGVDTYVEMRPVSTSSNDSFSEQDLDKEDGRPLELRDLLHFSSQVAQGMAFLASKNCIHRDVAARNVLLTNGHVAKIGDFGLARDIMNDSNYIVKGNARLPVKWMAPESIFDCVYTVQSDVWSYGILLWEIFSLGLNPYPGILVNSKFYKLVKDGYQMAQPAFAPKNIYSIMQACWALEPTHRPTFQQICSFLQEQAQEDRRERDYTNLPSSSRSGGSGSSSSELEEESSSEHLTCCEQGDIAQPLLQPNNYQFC

CC1(C)CC=C(c2cc([C@]3(O)C[C@@]4(CO)C=C[C@@](CO)(C3)O4)ccc2NC(=O)c2ncc(C#N)[nH]2)CC1 [US8497376, 2]
IC50: 0.43 nM
